Assay results as given in PubChem BioAssay (NCI).
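GI50 is the concentration that inhibits growth by half. TGI denotes the concentration required for complete inhibition of growth.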

Tests used:
Test in all cases: DTP human tumour cell line panel, 384-well format
NCI-H226 lung = system: NCI-H226 lung
NCI-H23 lung = system: NCI-H23 lung
NCI-H322M lung = system: NCI-H322M lung
NCI-H460 NSCLC = system: NCI-H460 NSCLC
NCI-H522 lung = system: NCI-H522 lung
NCI/ADR-RES ovarian = system: NCI/ADR-RES ovarian
OVCAR-3 ovarian = system: OVCAR-3 ovarian
OVCAR-4 ovarian = system: OVCAR-4 ovarian
OVCAR-5 ovarian = system: OVCAR-5 ovarian
OVCAR-8 ovarian = system: OVCAR-8 ovarian
PC-3 prostate = system: PC-3 prostate
RXF 393 renal = system: RXF 393 renal
SF-268 CNS = system: SF-268 CNS
SF-295 CNS = system: SF-295 CNS
SF-539 CNS = system: SF-539 CNS
SK-MEL-2 melanoma = system: SK-MEL-2 melanoma
SK-MEL-28 melanoma = system: SK-MEL-28 melanoma
SK-MEL-5 melanoma = system: SK-MEL-5 melanoma
SK-OV-3 ovarian = system: SK-OV-3 ovarian
SN12C renal = system: SN12C renal
SNB-19 CNS = system: SNB-19 CNS
SR leukemia = system: SR leukemia
SW-620 colon = system: SW-620 colon
T-47D breast = system: T-47D breast
TK-10 renal = system: TK-10 renal
U251 glioblastoma = system: U251 glioblastoma
UACC-257 melanoma = system: UACC-257 melanoma
UACC-62 melanoma = system: UACC-62 melanoma
UO-31 renal = system: UO-31 renal

N[C@@H](CSSC[C@H](N)C(=O)N1CCn2cc(-c3ccccc3)nc2[C@@H]1CC1CCCCC1)C(=O)N1CCn2cc(-c3ccccc3)nc2[C@@H]1CC1CCCCC1
TGI (NCI-H226 lung): 3260 nM
GI50 (NCI-H23 lung): 2120 nM
TGI (NCI-H23 lung): 4210 nM
GI50 (NCI-H322M lung): 2470 nM
TGI (NCI-H322M lung): 5640 nM
GI50 (NCI-H460 NSCLC): 288 nM
TGI (NCI-H460 NSCLC): 1590 nM
GI50 (NCI-H522 lung): 1610 nM
TGI (NCI-H522 lung): 2970 nM
GI50 (NCI/ADR-RES ovarian): 2350 nM
TGI (NCI/ADR-RES ovarian): 5410 nM
GI50 (OVCAR-3 ovarian): 1100 nM
TGI (OVCAR-3 ovarian): 2310 nM
GI50 (OVCAR-4 ovarian): 1940 nM
TGI (OVCAR-4 ovarian): 3380 nM
GI50 (OVCAR-5 ovarian): 1710 nM
TGI (OVCAR-5 ovarian): 3150 nM
GI50 (OVCAR-8 ovarian): 1620 nM
TGI (OVCAR-8 ovarian): 2980 nM
GI50 (PC-3 prostate): 1830 nM
TGI (PC-3 prostate): 3260 nM
TGI (RXF 393 renal): 1090 nM
GI50 (SF-268 CNS): 283 nM
TGI (SF-268 CNS): 1160 nM
GI50 (SF-295 CNS): 1940 nM
TGI (SF-295 CNS): 3360 nM
GI50 (SF-539 CNS): 1720 nM
TGI (SF-539 CNS): 3100 nM
GI50 (SK-MEL-2 melanoma): 184 nM
TGI (SK-MEL-2 melanoma): 524 nM
GI50 (SK-MEL-28 melanoma): 146 nM
TGI (SK-MEL-28 melanoma): 1030 nM
GI50 (SK-MEL-5 melanoma): 194 nM
TGI (SK-MEL-5 melanoma): 1300 nM
GI50 (SK-OV-3 ovarian): 242 nM
TGI (SK-OV-3 ovarian): 1800 nM
GI50 (SN12C renal): 1560 nM
TGI (SN12C renal): 2910 nM
GI50 (SNB-19 CNS): 586 nM
TGI (SNB-19 CNS): 1870 nM
GI50 (SR leukemia): 220 nM
TGI (SR leukemia): 627 nM
GI50 (SW-620 colon): 1020 nM
TGI (SW-620 colon): 2200 nM
GI50 (T-47D breast): 155 nM
TGI (T-47D breast): 550 nM
GI50 (TK-10 renal): 1750 nM
TGI (TK-10 renal): 3150 nM
GI50 (U251 glioblastoma): 571 nM
TGI (U251 glioblastoma): 1890 nM
GI50 (UACC-257 melanoma): 257 nM
TGI (UACC-257 melanoma): 702 nM
GI50 (UACC-62 melanoma): 176 nM
TGI (UACC-62 melanoma): 349 nM
GI50 (UO-31 renal): 2070 nM
TGI (UO-31 renal): 3960 nM
